Assay results: ChEMBL document CHEMBL2202961, “Antiproliferative activity of salinomycin and its derivatives” (Bioorg Med Chem Lett, 2012)
In brackets after ≈: the same amount, converted by molar mass.

Assays:
BALB/3T3 [1] = assay: Selectivity index, ratio of IC50 for mouse BALB/3T3 cells to IC50 for human vincristine-resistant human HL60/Vinc cells; type: functional
BALB/3T3 [2] = assay: Selectivity index, ratio of IC50 for mouse BALB/3T3 cells to IC50 for human HL60 cells; type: functional
HL-60 [3] = assay: Cytotoxicity against human HL60 cells incubated for 72 hrs by MTT assay; conditions: HL-60, 72 h
LoVo [4] = assay: Cytotoxicity against human LoVo cells incubated for 72 hrs by MTT assay; type: functional, cell-based
[5] = Cytotoxicity against doxorubicin-resistant human LoVo/DX cells incubated for 72 hrs by MTT assay; type: functional, cell-based
[6] = Cytotoxicity against vincristine-resistant human HL60/Vinc cells incubated for 72 hrs by MTT assay; type: functional, cell-based
BALB/3T3 [7] = assay: Selectivity index, ratio of IC50 for mouse BALB/3T3 cells to IC50 doxorubicin-resistant human LoVo/DX cells
HL-60 [8] = assay: Resistance index, ratio of IC50 for vincristine-resistant human HL60/Vinc cells to IC50 for parental human HL60 cells; type: functional
LoVo [9] = assay: Resistance index, ratio of IC50 for doxorubicin-resistant human LoVo/DX cells to IC50 for parental human LoVo cells; type: functional
LoVo [10] = assay: Selectivity index, ratio of IC50 for mouse BALB/3T3 cells to IC50 for human LoVo cells; type: functional
BALB/3T3 [11] = assay: Cytotoxicity against mouse BALB/3T3 cells incubated for 72 hrs by MTT assay; type: cell-based; conditions: BALB/3T3, 72 h
Staphylococcus aureus = assay: Antimicrobial activity against methicillin-resistant Staphylococcus aureus; type: functional

SMILES | Ratio IC50 (BALB/3T3 [1]) | Ratio IC50 (BALB/3T3 [2]) | IC50 (HL-60 [3]) [µM] | IC50 (LoVo [4]) [µM] | IC50 [5] [µM] | IC50 [6] [µM] | Ratio IC50 (BALB/3T3 [7]) | Ratio IC50 (HL-60 [8]) | Ratio IC50 (LoVo [9]) | Ratio IC50 (LoVo [10]) | IC50 (BALB/3T3 [11]) [µM] | MIC (Staphylococcus aureus) [µg/mL]
CC[C@@H](C(=O)[C@@H](C)[C@@H](O)[C@H](C)[C@@H]1O[C@@H]([C@@H](CC)C(=O)O)CC[C@@H]1C)[C@H]1O[C@]2(C=C[C@@H](O)[C@]3(CC[C@@](C)([C@H]4CC[C@](O)(CC)[C@H](C)O4)O3)O2)[C@H](C)C[C@@H]1C [SALINOMYCIN] | 8.16 | 63.81 | 0.44 | 1.11 | 6.23 | 3.44 | 4.51 | 7.82 | 5.61 | 25.3 | 28.1 | –
CCCCNC(=O)[C@H](CC)[C@H]1CC[C@H](C)[C@H]([C@@H](C)[C@H](O)[C@H](C)C(=O)[C@H](CC)[C@H]2O[C@]3(C=C[C@@H](O)[C@]4(CC[C@@](C)([C@H]5CC[C@](O)(CC)[C@H](C)O5)O4)O3)[C@H](C)C[C@@H]2C)O1 | 1.55 | 2.12 | 3.88 | 4.04 | 3.26 | 5.31 | 2.56 | 1.37 | 0.81 | 2.03 | 8.21 | –
CC[C@@H](C(=O)[C@@H](C)[C@@H](O)[C@H](C)[C@@H]1O[C@@H]([C@@H](CC)C(=O)On2nnc3ccccc32)CC[C@@H]1C)[C@H]1O[C@]2(C=C[C@@H](O)[C@]3(CC[C@@](C)([C@H]4CC[C@](O)(CC)[C@H](C)O4)O3)O2)[C@H](C)C[C@@H]1C | 6.08 | 17.33 | 1.84 | 4.11 | 6.61 | 5.25 | 4.83 | 2.85 | 1.61 | 7.76 | 31.9 | 1 (≈ 1.15 µM)
CC[C@@H](C(=O)[C@@H](C)[C@@H](O)[C@H](C)[C@@H]1O[C@@H]([C@@H](CC)C(=O)NCCOCCOCCOC)CC[C@@H]1C)[C@H]1O[C@]2(C=C[C@@H](O)[C@]3(CC[C@@](C)([C@H]4CC[C@](O)(CC)[C@H](C)O4)O3)O2)[C@H](C)C[C@@H]1C | 1.34 | 1.57 | 24.9 | 29.9 | 30.6 | 29.1 | 1.28 | 1.17 | 1.03 | 1.31 | 39.1 | –
CC[C@@H](C(=O)[C@@H](C)[C@@H](O)[C@H](C)[C@@H]1O[C@@H]([C@@H](CC)C(=O)NCCc2c[nH]c3ccccc23)CC[C@@H]1C)[C@H]1O[C@]2(C=C[C@@H](O)[C@]3(CC[C@@](C)([C@H]4CC[C@](O)(CC)[C@H](C)O4)O3)O2)[C@H](C)C[C@@H]1C | 2.31 | 2.84 | 3.52 | 3.45 | 2.78 | 4.31 | 3.59 | 1.22 | 0.81 | 2.9 | 9.98 | –
CC[C@@H](C(=O)[C@@H](C)[C@@H](O)[C@H](C)[C@@H]1O[C@@H]([C@@H](CC)C(=O)Nc2ccccc2)CC[C@@H]1C)[C@H]1O[C@]2(C=C[C@@H](O)[C@]3(CC[C@@](C)([C@H]4CC[C@](O)(CC)[C@H](C)O4)O3)O2)[C@H](C)C[C@@H]1C | 1.64 | 1.86 | 3.79 | 4.11 | 3.21 | 4.31 | 2.21 | 1.14 | 0.78 | 1.72 | 7.08 | –
CC[C@@H](C(=O)[C@@H](C)[C@@H](O)[C@H](C)[C@@H]1O[C@@H]([C@@H](CC)C(=O)NCc2ccccc2)CC[C@@H]1C)[C@H]1O[C@]2(C=C[C@@H](O)[C@]3(CC[C@@](C)([C@H]4CC[C@](O)(CC)[C@H](C)O4)O3)O2)[C@H](C)C[C@@H]1C | 1.21 | 2 | 3.63 | 4.02 | 3.31 | 6.02 | 2.19 | 1.66 | 0.82 | 1.81 | 7.26 | –
CC[C@@H](C(=O)[C@@H](C)[C@@H](O)[C@H](C)[C@@H]1O[C@@H]([C@@H](CC)C(=O)NCCCN2CCOCC2)CC[C@@H]1C)[C@H]1O[C@]2(C=C[C@@H](O)[C@]3(CC[C@@](C)([C@H]4CC[C@](O)(CC)[C@H](C)O4)O3)O2)[C@H](C)C[C@@H]1C | 1.23 | 6.16 | 5.63 | 18 | 19.4 | 28.1 | 1.78 | 4.99 | 1.08 | 1.92 | 34.7 | –
CC[C@@H](C(=O)[C@@H](C)[C@@H](O)[C@H](C)[C@@H]1O[C@@H]([C@@H](CC)C(=O)Nc2ccc3c(c2)OCCOCCOCCOCCO3)CC[C@@H]1C)[C@H]1O[C@]2(C=C[C@@H](O)[C@]3(CC[C@@](C)([C@H]4CC[C@](O)(CC)[C@H](C)O4)O3)O2)[C@H](C)C[C@@H]1C | 3.71 | 8.27 | 3.08 | 6.24 | 5.65 | 6.87 | 4.51 | 2.23 | 0.91 | 4.08 | 25.5 | –
COc1cccc2c1C(=O)c1c(O)c3c(c(O)c1C2=O)C[C@@](O)(C(=O)CO)C[C@@H]3O[C@H]1C[C@H](N)[C@H](O)[C@H](C)O1 [DOXORUBICIN] | – | – | – | 0.38 | 12.1 | 0.91 | – | – | – | – | 1.91 | –
